For assay [1], the target named is human lung tryptase or recombinant human β tryptase. Nature of the assay: Tryptase inhibition activity, S2366 substrate. The assay is classed as biochemical. The note with it: room temperature, 0.5 mM substrate. On the procedure: (§1) All enzyme assays are carried out at room temperature in 96-well microtiter plates using a final enzyme concentration of 1 nM. The concentrations of factor Xa and thrombin are determined by active site titration and the concentrations of all other enzymes are based on the protein concentration supplied by the manufacturer. Compounds according to the invention are dissolved in DMSO, diluted with their respective buffers and assayed at a maximal final DMSO concentration of 1.25%. Compound dilutions are added to wells containing buffer and enzyme and pre-equilibrated for between 5 and 30 minutes. The enzyme reactions are initiated by the addition of substrate and the color developed from the hydrolysis of the peptide-p-nitroanilide substrates is monitored continuously for 5 minutes at 405 nm on a Vmax microplate reader (Molecular Devices). Under these conditions, less than 10% of the substrate is utilized in all assays. […] The apparent Ki values are then determined according to the Cheng-Prusoff equation (IC50=Ki[1+[S]/Km]) assuming competitive inhibition kinetics.
Tryptase inhibition activity is confirmed using either isolated human lung tryptase or recombinant human β tryptase expressed in yeast cells. Essentially equivalent results are obtained using isolated native enzyme or the expressed enzyme. […]

Another assay concerns the target Factor Xa (Homo sapiens, UniProt P00742). Nature of the assay: Enzyme assay, purified factor Xa, peptide-p-nitroanilide substrate. The class given is biochemical. Conditions: apparent Ki from IC50 by Cheng-Prusoff, room temperature, 1 nM enzyme. On the procedure: as §1

Consider ten molecules from patent publication US7947684B2, “1-aroyl-piperidinyl benzamidines” (Aventis Pharmaceuticals Inc., priority 2000, dated 2011).

Counter-ions that a name gives are not always drawn.

Factor Xa, sequence (P00742 235-488 limits assumed): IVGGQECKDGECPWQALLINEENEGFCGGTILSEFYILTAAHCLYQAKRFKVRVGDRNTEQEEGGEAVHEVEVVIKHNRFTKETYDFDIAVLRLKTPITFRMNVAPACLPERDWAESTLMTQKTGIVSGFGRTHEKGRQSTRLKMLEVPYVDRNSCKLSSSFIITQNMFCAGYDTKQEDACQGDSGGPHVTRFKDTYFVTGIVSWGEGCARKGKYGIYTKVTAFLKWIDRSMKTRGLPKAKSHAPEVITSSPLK
Factor Xa, sequence (P00742 41-179 partner limits assumed): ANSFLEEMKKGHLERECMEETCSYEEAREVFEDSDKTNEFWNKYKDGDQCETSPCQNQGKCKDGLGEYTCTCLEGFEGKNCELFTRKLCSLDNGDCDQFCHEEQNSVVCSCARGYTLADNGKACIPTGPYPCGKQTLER

As to `N=C(N)c1cccc(C2=CCN(C(=O)c3cncc(C#Cc4ccccc4)c3)CC2)c1` [Example 47, 3-[1-(5-Phenylethynyl-pyridine-3-carbonyl)-1,2,3,6-tetrahydropyridin-4-yl]-benzamidine hydrochloride], the Ki in assay [1] was 183 nM.

Consider `Nc1nccc2[nH]c(C3CCN(C(=O)c4ccc(-c5ccc(=O)[nH]c5)cc4)CC3)cc12` [Example 44, 5-{4-[4-(4-Amino-1H-pyrrolo[3,2-c]pyridin-2-yl)piperidine-1-carbonyl]phenyl}-1H-pyridin-2-one trifluoroacetate], for which the Ki on Factor Xa was 990 nM.

With `N=C(N)c1cccc(C2=CCN(C(=O)c3ccc(-c4ccc(Cl)s4)cc3)CC2)c1` [Example 11, 3-{1-[4-(5-Chlorothiophen-2-yl)-benzoyl]-1,2,3,6-tetrahydropyridin-4-yl}benzamidine trifluoroacetate], at Factor Xa, the Ki stood at 688 nM.

As for `N=C(N)c1cccc(C2=CCN(C(=O)c3ccc(-c4ncccn4)cc3)CC2)c1` [Example 16, 3-[1-(4-Pyrimidin-2-ylbenzoyl)-1,2,3,6-tetrahydropyridin-4-yl]-benzamidine ditrifluoroacetate], the Ki at Factor Xa was determined as 63 nM.

With `N=C(N)c1cccc(C2=CCN(C(=O)c3ccc(-c4ccc(Br)o4)cc3)CC2)c1` [Example 10, 3-{1-[4-(5-Bromofuran-2-yl)-benzoyl]-1,2,3,6-tetrahydropyridin-4-yl}benzamidine trifluoroacetate], the Ki at Factor Xa was 34 nM.

Take `N=C(N)c1cccc(N2CCN(C(=O)c3cncc(CCc4ccccc4)c3)CC2)c1` [Example 49, 3-[4-(5-Phenylethyl-pyridine-3-carbonyl)-piperazin-1-yl]-benzamidine di-hydrochloride]: in assay [1], the Ki came out at 1070 nM.

As to `N=C(N)c1cccc(C2CCN(C(=O)c3ccc(-c4ccccn4)cc3)CC2)c1` [Example 25, 3-[1-(4-Pyridin-2-ylbenzoyl)-piperidin-4-yl]benzamidine ditrifluoroacetate], the Ki on Factor Xa was 9 nM.

Take `Nc1nccc2ccc(C3=CCN(C(=O)c4ccc(-c5ccc(=O)[nH]c5)cc4)CC3)cc12` [Example 39, 5-{4-[4-(1-Aminoisoquinolin-7-yl)-3,6-dihydro-2H-pyridine-1-carbonyl]phenyl}-1H-pyridin-2-one trifluoroacetate]: the Ki on Factor Xa came to 140 nM.

On to `N=C(N)c1cccc(C2=CCN(C(=O)c3ccc(-c4cccnc4)cc3)CC2)c1` [Example 8, 3-[1-(4-Pyridin-3-yl-benzoyl)-1,2,3,6-tetrahydropyridin-4-yl]benzamidine ditrifluoroacetate], for which, on Factor Xa, the Ki came to 5 nM.

As for `NC(=O)c1cccc(-c2ccc(C(=O)N3CCC(c4ccc5ccnc(N)c5c4)CC3)cc2)c1` [Example 35, 4′-[4-(1-Aminoisoquinolin-7-yl)piperidine-1-carbonyl]biphenyl-3-carboxylic acid amide trifluoroacetate], at Factor Xa, the Ki was found to be 570 nM.
